Results reported in ChEMBL document CHEMBL1150467, “The identification of a novel renin inhibitor of equivalent efficacy following oral or intravenous administration” (Bioorg Med Chem Lett, 1994).

Each molecule was assayed against T1, Renin (Homo sapiens, UniProt P00797) (assay: […]).
T1 sequence (P00797 whole entry): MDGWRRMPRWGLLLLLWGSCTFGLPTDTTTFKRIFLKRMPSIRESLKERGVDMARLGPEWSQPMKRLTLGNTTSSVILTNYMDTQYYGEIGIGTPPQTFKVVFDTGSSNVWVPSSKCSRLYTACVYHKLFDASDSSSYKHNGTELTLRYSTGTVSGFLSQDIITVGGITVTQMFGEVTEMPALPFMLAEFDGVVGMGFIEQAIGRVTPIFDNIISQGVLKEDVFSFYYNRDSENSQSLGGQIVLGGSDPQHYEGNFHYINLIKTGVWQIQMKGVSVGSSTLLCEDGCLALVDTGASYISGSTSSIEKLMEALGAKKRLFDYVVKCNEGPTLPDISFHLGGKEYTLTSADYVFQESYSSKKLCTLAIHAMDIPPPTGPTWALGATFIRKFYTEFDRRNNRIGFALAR
Type: cell-free, Plasma
With `CC(C)C[C@H](NC(=O)[C@H](Cc1ccccc1)NC(=O)CCN1C(=O)COc2ccncc21)C(=O)N[C@@H](CC1CCCCC1)[C@@H](O)CC(=O)NCCCn1ccnc1` the IC50 was 20 nM.
Molecule `CC(C)C[C@H](NC(=O)[C@H](Cc1ccccc1)NC(=O)CCN1C(=O)CSc2cnccc21)C(=O)N[C@@H](CC1CCCCC1)[C@@H](O)CC(=O)NCCCn1ccnc1` has an IC50 of 4 nM.
`CC(C)C[C@H](NC(=O)[C@H](Cc1ccccc1)NC(=O)CC1CS(=O)(=O)c2ccccc21)C(=O)N[C@@H](CC1CCCCC1)[C@@H](O)CC(=O)NCCN1CCOCC1` (some centres not stated) was tested, and the IC50 was 170 nM.
In the case of `CC(C)CCNC(=O)C[C@H](O)[C@H](CC1CCCCC1)NC(=O)[C@H](CC(C)C)NC(=O)[C@H](Cc1ccccc1)NC(=O)CC1CS(=O)(=O)c2ccccc21` (some centres not stated), the IC50 is reported as 10 nM.
`CC(C)C[C@H](NC(=O)[C@H](Cc1ccccc1)NC(=O)CN1C(=O)CSc2ccncc21)C(=O)N[C@@H](CC1CCCCC1)[C@@H](O)CC(=O)NCCCn1ccnc1` gave an IC50 of 38 nM.
Molecule `CC(C)C[C@H](NC(=O)[C@H](Cc1ccccc1)NC(=O)CC1CS(=O)(=O)c2ccccc21)C(=O)N[C@@H](CC1CCCCC1)[C@@H](O)CC(=O)NCCn1ccnc1` (some centres not stated) has an IC50 of 41 nM.
`CC(C)C[C@H](NC(=O)[C@H](Cc1ccccc1)NC(=O)CCCN1C(=O)CSc2ccncc21)C(=O)N[C@@H](CC1CCCCC1)[C@@H](O)CC(=O)NCCCn1ccnc1` showed an IC50 of 14 nM.
With `CC(C)C[C@H](NC(=O)[C@H](Cc1ccccc1)NC(=O)CCN1C(=O)CS(=O)(=O)c2ccncc21)C(=O)N[C@@H](CC1CCCCC1)[C@@H](O)CC(=O)NCCCn1ccnc1` the IC50 was 8 nM.
Molecule `CC(C)C[C@H](NC(=O)[C@H](Cc1ccccc1)NC(=O)CC1CS(=O)(=O)c2ccccc21)C(=O)N[C@@H](CC1CCCCC1)[C@@H](O)CC(=O)NCCCc1cccnc1` (some centres not stated) has an IC50 of 34 nM.
Molecule `CC(C)C[C@H](NC(=O)[C@H](Cc1ccccc1)NC(=O)CC1CS(=O)(=O)c2ccccc21)C(=O)N[C@@H](CC1CCCCC1)[C@@H](O)CC(=O)NCCCn1ccnc1` (some centres not stated) has an IC50 of 12 nM.
`CC(C)C[C@H](NC(=O)[C@H](Cc1ccccc1)NC(=O)CC1CS(=O)(=O)c2ccccc21)C(=O)N[C@@H](CC1CCCCC1)[C@@H](O)CC(=O)NCCCC(=O)O` (some centres not stated) showed an IC50 of 55 nM.
Molecule `CC(C)C[C@H](NC(=O)[C@H](Cc1ccccc1)NC(=O)CC1CS(=O)(=O)c2ccccc21)C(=O)N[C@@H](CC1CCCCC1)[C@@H](O)CC(=O)NCCCN(C)C` (some centres not stated) has an IC50 of 95 nM.
